From US20240025906A1 (NEURON23, INC., priority 2022, published 2024)
Read-outs that look alike come from different tables or passages of the source.

Key:
[1] = tested on: JAK1/TYK2 pSTAT5 (Tyr694/699) in THP-1 cell line; assay: IFNa-stimulated JAK1/TYK2 pSTAT5 (Tyr694/699) inhibition cellular assay, AlphaLISA; assay type: cell-based; settings: Homo sapiens, THP-1 cells, AlphaLISA (Assay B)
Procedure, shortened: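 The readout is AlphaLISA signal at 615 nm for phospho-STAT5 in THP-1 lysates after IFNa stimulation (added at 100 ng/mL, 30 min, 37 °C). Cells had compound for 1 h beforehand across eight 6-fold concentrations up to 10000 nM final. IC50s are 4PL fits with bottom and Hill slope constrained.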

[2] = molecular target: T1, TYK2 JH2 (Homo sapiens, UniProt P29597); assay: TYK2 JH2 binding assay (KINOMEscan KdELECT competitive binding); settings: TYK2 JH2 domain
T1 construct: purchased DiscoverX (KINOMEscan KdELECT service); host or cells: E. coli BL21-derived (T7 phage display) or HEK-293
Procedure, shortened: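 Competition binding, KdELECT format. Kinase (phage-tagged, E. coli BL21-derived host; or HEK-293, DNA-tagged) + ligand-coated streptavidin beads + cpd, 1 h RT, final DMSO 0.9%. Wash, elute 30 min with 0.5 μM non-biotinylated ligand; qPCR readout. Kd: 11-pt, 3-fold series.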

[3] = IFNa-stimulated, read-out: Cellular_THP1_IFNa-pSTATS_TYK2
[4] = KINOMEscan KdELECT (Assay A), read-out: Biochemical TYK2_DiscoverX_JH2_BND_Kd
[5] = DiscoverX KINOMEscan KdELECT (Assay A), read-out: Biochemical TYK2_DiscoverX_JH2_BND_Kd
[6] = IFNa-stimulated pSTAT5 (Tyr694/699), read-out: Cellular_THP1_IFNa-pSTATS_TYK2
[7] = IFNa-stimulated, read-out: Cellular THP1_IFNa-pSTATS_IC50
[8] = KINOMEscan KdELECT (Assay A), read-out: Biochemical TYK2_JH2_Kd

T1 sequence (P29597 589-875 limits assumed): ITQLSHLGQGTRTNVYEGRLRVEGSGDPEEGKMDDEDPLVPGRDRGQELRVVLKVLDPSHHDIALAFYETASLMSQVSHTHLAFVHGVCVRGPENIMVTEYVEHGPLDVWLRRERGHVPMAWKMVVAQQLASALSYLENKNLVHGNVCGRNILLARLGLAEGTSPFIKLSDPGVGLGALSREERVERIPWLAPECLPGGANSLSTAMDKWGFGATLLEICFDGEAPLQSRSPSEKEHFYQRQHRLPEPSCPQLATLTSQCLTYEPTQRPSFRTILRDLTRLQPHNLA

Row | IC50 [1, 3] | Kd [2, 4] | Kd [2, 5] | SMILES | further results
1 | ≤ 0.5 µM | ≤ 0.1 µM |  | CNc1ncc(-c2nc3cc(N4CC(C)(O)C4)ccc3o2)c2cc(NC(=O)C3CC3)ncc12 [Example 927, N-(5-(5-(3-hydroxy-3-methylazetidin-1-yl)benzo[d]oxazol-2-yl)-8-(methylamino)-2,7-naphthyridin-3-yl)cyclopropanecarboxamide] | 
2 | ≤ 0.5 µM |  | ≤ 0.1 µM | CNc1ncc(-c2nc3cc(-c4ncn(C)n4)ccc3o2)c2cc(NC(=O)C3CC3)ncc12 [Example 464, N-(5-(5-(1-methyl-1H-1,2,4-triazol-3-yl)benzo[d]oxazol-2-yl)-8-(methylamino)-2,7-naphthyridin-3-yl)cyclopropanecarboxamide] | 
3 | ≤ 0.5 µM |  | ≤ 0.1 µM | CNc1ncc(-c2nc3ccc(N4CCO[C@@H](C)C4)c(F)n3n2)c2cc(NC(=O)C3CC3)ncc12 [Example 508, (S)—N-(5-(5-fluoro-6-(2-methylmorpholino)-[1,2,4]triazolo[1,5-a]pyridin-2-yl)-8-(methylamino)-2,7-naphthyridin-3-yl)cyclopropanecarboxamide] | 
4 | ≤ 0.5 µM | ≤ 0.1 µM |  | CNc1ncc(C#Cc2ccc3c(c2)CC[C@H](COC)O3)c2cc(NC(=O)C3CC3)ncc12 (single isomer, unassigned) [Example 988] | 
5 | ≤ 0.5 µM | ≤ 0.1 µM |  | CNc1ncc(C#Cc2ccnn2C)c2cc(NC(=O)C3CC3)ncc12 [Example 804, N-(5-((1-methyl-1H-pyrazol-5-yl)ethynyl)-8-(methylamino)-2,7-naphthyridin-3-yl)cyclopropanecarboxamide] | 
6 |  | ≤ 0.1 µM |  | CNc1ncc(C#Cc2cn(C)nn2)c2cc(NC(=O)C3CC3)ncc12 [Example 1007, N-[8-(methylamino)-5-[2-(1-methyltriazol-4-yl)ethynyl]-2,7-naphthyridin-3-yl]cyclopropanecarboxamide] | IC50 [1, 6]: ≤ 0.5 µM
7 | ≤ 0.5 µM | ≤ 0.1 µM |  | CNc1ncc(C#Cc2ccc3oc(CO)cc3c2)c2cc(NC(=O)C3CC3)ncc12 [Example 642, N-(5-((2-(hydroxymethyl)benzofuran-5-yl)ethynyl)-8-(methylamino)-2,7-naphthyridin-3-yl)cyclopropanecarboxamide] | 
8 | ≤ 0.5 µM |  | ≤ 0.1 µM | CNc1ncc(-c2nc3cnccc3o2)c2cc(NC(=O)C3CC3)ncc12 [Example 356, N-(8-(methylamino)-5-(oxazolo[4,5-c]pyridin-2-yl)-2,7-naphthyridin-3-yl)cyclopropanecarboxamide] | 
9 | ≤ 0.5 µM | ≤ 0.1 µM |  | CNc1ncc(C#Cc2ccccc2C(C)(C)O)c2cc(NC(=O)C3CC3)ncc12 [Example 652, N-(5-((2-(2-hydroxypropan-2-yl)phenyl)ethynyl)-8-(methylamino)-2,7-naphthyridin-3-yl)cyclopropanecarboxamide] | 
10 | ≤ 0.5 µM |  | ≤ 0.1 µM | CNc1ncc(-c2nc3cccc(CC#N)c3o2)c2cc(NC(=O)C3CC3)ncc12 [Example 266, N-(5-(7-(cyanomethyl)benzo[d]oxazol-2-yl)-8-(methylamino)-2,7-naphthyridin-3-yl)cyclopropanecarboxamide] | 
11 | ≤ 0.5 µM | ≤ 0.1 µM |  | CNc1ncc(C#Cc2ccnc(F)c2)c2cc(NC(=O)C3CC3)ncc12 [Example 979, N-[5-[2-(2-fluoro-4-pyridyl)ethynyl]-8-(methylamino)-2,7-naphthyridin-3-yl]cyclopropanecarboxamide] | 
12 |  | ≤ 0.1 µM |  | CNc1ncc(C#Cc2cnn3cccnc23)c2cc(NC(=O)C3CC3)ncc12 [Example 1021, N-(8-(methylamino)-5-(pyrazolo[1,5-a]pyrimidin-3-ylethynyl)-2,7-naphthyridin-3-yl)cyclopropanecarboxamide] | IC50 [1, 6]: ≤ 0.5 µM
13 |  |  |  | CNc1ncc(-c2ccncc2OC)c2cc(NC(=O)C3CC3)ncc12 [Example 8, N-(5-(3-methoxypyridin-4-yl)-8-(methylamino)-2,7-naphthyridin-3-yl)cyclopropanecarboxamide] | IC50 [1, 7]: > 0.5 µM; Kd [2, 8]: ≤ 0.1 µM
14 | ≤ 0.5 µM | ≤ 0.1 µM |  | CNc1ncc(C#Cc2ccc3ncn(CCCC#N)c3c2)c2cc(NC(=O)C3CC3)ncc12 [Example 694, N-(5-((1-(3-cyanopropyl)-1H-benzo[d]imidazol-6-yl)ethynyl)-8-(methylamino)-2,7-naphthyridin-3-yl)cyclopropanecarboxamide] | 
15 | ≤ 0.5 µM |  | ≤ 0.1 µM | CNc1ncc(-c2nc3cc(N4CCO[C@H](C)C4)ccc3o2)c2cc(Nc3ccccn3)ncc12 [Example 420, (R)—N^1-methyl-4-(5-(2-methylmorpholino)benzo[d]oxazol-2-yl)-N^6-(pyridin-2-yl)-2,7-naphthyridine-1,6-diamine] | 
16 | ≤ 0.5 µM | ≤ 0.1 µM |  | CNc1ncc(C#Cc2ccc(N3CCOCC3)cn2)c2cc(NC(=O)C3CC3)ncc12 [Example 951, N-(8-(methylamino)-5-((5-morpholinopyridin-2-yl)ethynyl)-2,7-naphthyridin-3-yl)cyclopropanecarboxamide] | 
17 | ≤ 0.5 µM |  | ≤ 0.1 µM | CNc1ncc(-c2nc3cc(N4CCO[C@@H](C)C4)ccc3o2)c2cc(NC(=O)[C@@H]3C[C@@H]3C(F)F)ncc12 (single isomer, unassigned) [Example 415] | 
18 | ≤ 0.5 µM |  | ≤ 0.1 µM | CCNc1ncc(-c2nc3ccc(N4CCO[C@@H](C)C4)cn3n2)c2cc(NC(=O)C3CC3)ncc12 [Example 515, (S)-N-(8-(ethylamino)-5-(6-(2-methylmorpholino)-[1,2,4]triazolo[1,5-a]pyridin-2-yl)-2,7-naphthyridin-3-yl)cyclopropanecarboxamide] | 
19 | ≤ 0.5 µM | ≤ 0.1 µM |  | CNc1ncc(-c2nn3c(C)ncc3o2)c2cc(NC(=O)C3CC3)ncc12 [Example 873, N-(8-(methylamino)-5-(5-methylimidazo[5,1-b][1,3,4]oxadiazol-2-yl)-2,7-naphthyridin-3-yl)cyclopropanecarboxamide] | 
20 |  |  |  | CNc1ncc(-c2ccccc2)c2cc(NC(C)=O)ncc12 [Example 90, N-(8-(methylamino)-5-phenyl-2,7-naphthyridin-3-yl)acetamide] | IC50 [1, 7]: > 0.5 µM; Kd [2, 8]: ≤ 0.1 µM
21 | ≤ 0.5 µM | ≤ 0.1 µM |  | CNc1ncc(-c2cc3ccc(N4CCO[C@@H](C)C4)cn3n2)c2cc(NC(=O)[C@H]3C[C@H]3C)ncc12 [Example 798, (1S,2R)-2-methyl-N-(8-(methylamino)-5-(6-((S)-2-methylmorpholino)pyrazolo[1,5-a]pyridin-2-yl)-2,7-naphthyridin-3-yl)cyclopropane-1-carboxamide] | 
22 | ≤ 0.5 µM |  | ≤ 0.1 µM | CCNc1ncc(-c2nc3ccc(OC)cn3n2)c2cc(NC(=O)C3CC3)ncc12 [Example 516, N-(8-(ethylamino)-5-(6-methoxy-[1,2,4]triazolo[1,5-a]pyridin-2-yl)-2,7-naphthyridin-3-yl)cyclopropanecarboxamide] | 
23 |  | ≤ 0.1 µM |  | CNc1ncc(-c2nc3ccc(N4CCO[C@H](CO)C4)cn3n2)c2cc(NC(=O)C3CC3)ncc12 [Example 1031] | IC50 [1, 6]: ≤ 0.5 µM
24 | ≤ 0.5 µM |  | ≤ 0.1 µM | CNc1ncc(-c2nc3cccc(OC)c3o2)c2cc(NC(=O)C3CC3)ncc12 [Example 208, N-(5-(7-methoxybenzo[d]oxazol-2-yl)-8-(methylamino)-2,7-naphthyridin-3-yl)cyclopropanecarboxamide] | 
25 |  | ≤ 0.1 µM |  | CC[C@@H]1CN(c2ccc3nc(-c4cnc(NC)c5cnc(NC(=O)[C@H]6C[C@H]6C)cc45)nn3c2)CCO1 (single isomer, unassigned) [Example 1078] | IC50 [1, 6]: ≤ 0.5 µM
26 | > 0.5 µM | ≤ 0.1 µM |  | CNc1ncc(C#Cc2cc(C#N)c(OC)cn2)c2cc(NC(=O)C3CC3)ncc12 [Example 730, N-(5-((4-cyano-5-methoxypyridin-2-yl)ethynyl)-8-(methylamino)-2,7-naphthyridin-3-yl)cyclopropanecarboxamide] | 
27 | ≤ 0.5 µM |  | ≤ 0.1 µM | CNc1ncc(-c2nc3cc(Oc4ccncc4)ccc3o2)c2cc(NC(=O)C3CC3)ncc12 [Example 340, N-(8-(methylamino)-5-(5-(pyridin-4-yloxy)benzo[d]oxazol-2-yl)-2,7-naphthyridin-3-yl)cyclopropanecarboxamide] | 
28 | ≤ 0.5 µM | ≤ 0.1 µM |  | CNc1ncc(/C=C/c2ccc(N3CCO[C@@H](C)C3)cc2)c2cc(NC(=O)C3CC3)ncc12 [Example 787, (S,E)-N-(8-(methylamino)-5-(4-(2-methylmorpholino)styryl)-2,7-naphthyridin-3-yl)cyclopropanecarboxamide] | 
29 | ≤ 0.5 µM |  | ≤ 0.1 µM | CNc1ncc(-c2nc3cc(N4C[C@@H]5C[C@H]4CO5)ccc3o2)c2cc(NC(=O)C3CC3)ncc12 [Example 298, N-(5-(5-((15,4S)-2-oxa-5-azabicyclo[2.2.1]heptan-5-yl)benzo[d]oxazol-2-y1)-8-(methylamino)-2,7-naphthyridin-3-yl)cyclopropanecarboxamide] | 
30 |  |  |  | C=C(c1ccc(OC)cc1)c1cnc(NC)c2cnc(NC(=O)C3CC3)cc12 [Example 136] | IC50 [1, 7]: > 0.5 µM; Kd [2, 8]: 0.1 to 1 µM
